According to US20080241919A1, “Defined media for pluripotent stem cell culture” (The Burnham Institute of Medical Research, priority 2003, published 2008):

Experiments:
[1] = tested on: human embryonic stem cells (hESCs); test: Medium component requirement assay, hESCs on laminin/collagen-coated plates for seven days; type: cell-based
Procedure: (a) Media containing bFGF, insulin, and ascorbic acid sustain the healthy undifferentiated growth of hESCs on laminin/collagen-coated plates. Insulin (20 μg/ml), transferrin (8 μg/ml), albumin (for example, the commercial product known as AlbuMAXI) (10 mg/ml), and ascorbic acid (50 μg/ml) were added to a base medium that consisted of 100% DMEM/F-12 with 20 ng/ml bFGF, 2 mM L-alanyl-L-glutamine, 1×MEM essential amino acids solution, 1×MEM non-essential amino acids solution, and 100 μM β-mercaptoethanol. The degree of differentiation was judged by morphology of the colonies and Oct-4 expression. […] (red). […] However, if ascorbic acid was omitted from the media [D, H, L] […] White arrows in all panels delineate the edge of an hESC colony. The area delineated by the white square in [A], [E], and [I] indicates the approximate area that is visualized at higher magnification in [B, C], [F, G], and [J, K], respectively. [C], [G], and [K] is the image in [B], [F], and [J], respectively, merged with DAPI staining of their nuclei (blue).
(b) When either bFGF or insulin was omitted from the media, hESC colonies appeared to differentiate completely under the feeder- and serum-free conditions. […] The distinct growth effects of insulin and bFGF were further accentuated in media lacking ascorbic acid [C, F] (“NO Ascorbic Acid”). In the absence of ascorbic acid and in media that contained only insulin as the growth factor [C] (phase) (“NO Ascorbic Acid”), slower growth of the differentiated hESCs was observed (compare [A, B] to [C]). In ascorbic-acid-lacking media that contained bFGF as the only growth factor [F] […] White arrows in all panels delineate the edge of hESC colonies.
Having determined that substantial numbers of undifferentiated hESCs could be maintained over long periods in feeder-free environments using the bFGF-supplemented media described above, the necessity of other components in the medium to maintain hESCs in an undifferentiated state was next examined. “Knockout Serum Replacement” contains insulin, transferrin, ascorbic acid, amino acids, and AlbuMAX (a chromatographically-purified lipid-rich bovine serum albumin [BSA] with low IgG content, but nevertheless a xeno-derived product). Accordingly, whether insulin, transferrin, BSA, and ascorbic acid were essential components was assessed, in combination with bFGF, for maintaining hESCs in an undifferentiated state. The serum replacement components insulin (20 μg/ml), transferrin (8 μg/ml), albumin (AlbuMAX) (10 mg/ml), and ascorbic acid (50 μg/ml) were added to a base medium that consisted of DMEM/F-12 or KO-DMEM with bFGF (20 ng/ml), L-alanyl-L-glutamine or L-glutamine (2 mM), MEM essential amino acids solution (1×), MEM nonessential amino acids solution (1×), and β-mercaptoethanol (100 μM). To assay for the differentiation-forestalling activity of each of these components, undifferentiated hESCs were seeded on laminin/collagen-coated plates and cultivated for seven days in media containing one or more of the individual components. The degree of differentiation of the colonies was judged by defining morphology and Oct-4 expression.
When either bFGF or insulin was omitted from the media, more than 90% of the colonies appeared to differentiate completely within the first passage, as indicated by their differentiated morphology (FIG. 2b, A,B,D,E), their complete loss of Oct-4 expression, and their expression of the cell surface marker SSEA-1 (FIG. 2c, B,C). […] The different effects of insulin and bFGF were accentuated further in media lacking ascorbic acid. In the absence of ascorbic acid and in media containing only insulin, the growth of differentiated hESCs was simply slower (FIG. 2b, C). […] Although albumin and transferrin are not crucial components for sustaining the undifferentiated growth of hESCs, they might abet survival or maintenance of a normal colony shape.

[2] = tested on: human embryonic stem cells (hESCs); test: Other growth factors in place of bFGF for undifferentiated growth of hESCs; type: cell-based; conditions: feeder- and serum-free conditions
Procedure: All the growth factors were dissolved in a PBS buffer that contained 0.5% BSA, 1 mM DTT (Dithiothreitol) and 10% glyceral as a 10 μg/ml (500×) stock solution and stored in aliquots at −80° C. These factors were added individually to the hESC cultures at a concentration of 20 ng/ml, in the absence of bFGF or in the presence of a low concentration of bFGF (4 ng/ml). Seven days after seeding undifferentiated hESCs on laminin/collagen-coated plates, the cultures were examined.

[3] = tested on: acetylated histone H3 and H4, Myc, Tip60 HAT, p300 HAT; test: Chromatin state immunofluorescence (acetylated H3/H4, Myc, Tip60, p300) in hESCs; type: cell-based, human; conditions: named factor omitted from the media
Excerpt: (c) Presence of both bFGF and insulin is essential for maintenance of an acetylated transcriptionally active chromatin state in undifferentiated hESCs. When either bFGF or insulin is omitted from the media, the differentiated hESC colonies express the differentiation-associated cell surface marker SSEA-1 [B, C] […] (green), Myc [E, F] (red), and histone acetyltransferase (HAT) Tip60 [I, K] (green) and p300 [J, K] […] All cells are indicated by DAPI staining of their nuclei (blue).
To discover the minimal essential conditions needed to support the long-term growth of undifferentiated hESCs, morphological analysis was used to assess the developmental stage of hESCs at different times. For these analyses hESCs were grown in a 6- or 12-well plate to maturation (day 6 or 7 after seeding) before being fixed and visualized under a phase contrast microscope. Cellular immunofluorescence was also employed to assess the state of differentiation of hESCs. […] The state of differentiation of hESC was further assessed by generating (via lentiviral-mediated transduction) hESCs carrying a reporter gene (enhanced green fluorescence protein (EGFP)) under control of the Oct-4 promoter. Using these transfected hESCs (carrying Oct-4 driven EGFP), the undifferentiated state of hESCs can be visualized by green fluorescence (indicating Oct-4 expression). […]

[4] = tested on: human embryonic stem cells (hESCs); test: Growth of hESCs on purified matrix protein-coated plates; type: cell-based; conditions: hESC media containing 20 ng/ml bFGF
Excerpt: (e) Characterization of hESCs maintained on matrix protein-coated plates in the defined hESC media - Determining the Minimal Essential Matrix. hESCs maintained on a laminin-coated plate have a classic undifferentiated morphology [A] (phase image) and express Oct-4 [B, C] (red). [C] is the image in [B] merged with DAPI staining of their nuclei (blue). White arrows delineate the edge of an hESC colony. The area delineated by the white square in [A] indicates the approximate area that is visualized at higher magnification in [B, C]. […] Red arrows in [D-F] indicate that the differentiated colony consisted of dense centers containing cyst-like structures and necrotic cells. Laminin, therefore, appeared to be the minimal sufficient matrix protein.
Having established that bFGF, insulin, and ascorbic acid were important minimal components of a feeder-free culture system, the growth of hESCs on purified matrix proteins, including human laminin-, fibronectin-, or collagen IV-coated plates in hESC media containing 20 ng/ml bFGF, was further examined.

In the case of `O=C1O[C@H]([C@@H](O)CO)C(O)=C1O` [ascorbic acid, reference compound], the “cyst-like structures and necrotic cells within dense cores of differentiated hESC colonies” value ([1]; absence of ascorbic acid, media containing only bFGF) is reported as “became more severe”, the “growth of differentiated hESCs” value ([1]; absence of ascorbic acid, media containing only insulin) is reported as “simply slower” and the “appearance of hESC colonies” value ([1]; ascorbic acid omitted from the media) is reported as “very dense at their core and necrotic”.
With “EGF: epidermal growth factor (NSDSECPLSHDGYCLHDGVCMYIEALDKYACNCVVGYIGERCQYRDLKWWELR; Epidermal growth factor; UniProt P01133 971-1023, looked up)” the “ability to replace bFGF in supporting undifferentiated growth of hESCs” value [2] was “can not replace bFGF”.
IGF-I: insulin-like growth factor-I was tested, and the “ability to replace bFGF in supporting undifferentiated growth of hESCs” value [2] was “can not replace bFGF”.
IGF-II: insulin-like growth factor-II was tested, and the “ability to replace bFGF in supporting undifferentiated growth of hESCs” value [2] was “can not replace bFGF”.
For PDGF: platelet-derived growth factor-AB, the “ability to replace bFGF in supporting undifferentiated growth of hESCs” value [2] was “can not replace bFGF”.
For VEGF, the “ability to replace bFGF in supporting undifferentiated growth of hESCs” value [2] was “can not replace bFGF”.
With aFGF: acidic fibroblast growth factor the “ability to replace bFGF in supporting undifferentiated growth of hESCs” value [2] was “can not replace bFGF”.
With “albumin: chromatographically-purified lipid-rich bovine serum albumin with low IgG content” the “shape of hESC colonies” value ([1]; absence of albumin) was “more flat and spread out”.
“insulin: human recombinant insulin from Sigma, medium component” was tested, and the “cell morphology in differentiated colonies” value ([1]; media that contained only the named growth factor) was “Large round cells” and the “immunoreactivity to acetylated H3 and H4, Myc, Tip60 HAT, nuclear focal localization of p300 HAT” value [3] was “undetectable or weak immunoreactivity”.
For laminin, the “hESC colonies remaining undifferentiated (morphology, Oct-4)” value [4] was “more than 80%”.
In the case of “transferrin: serum replacement component added at 8 μg/ml”, the “number of hESC colonies” value ([1]; absence of transferrin) is reported as “fewer total hESC colonies”.
